Data as given in patent publication US20240218022A1, “ANTI-VISTA MACROCYCLIC PEPTIDES AND COMPOSITIONS” (BRISTOL-MYERS SQUIBB COMPANY, priority 2022, published 2024).
Positions of bridges follow the written chain, without caps; N, C: chain ends. Non-standard residues stand in square brackets, D forms with d. Residues, ends and D or L forms follow the SMILES beside them. ξ: configuration not given here. NMeW = CN[C@@H](Cc1c[nH]c2ccccc12)C(=O)O; Phe(3-Me) = Cc1cccc(C[C@H](N)C(=O)O)c1; 2Nal = N[C@@H](Cc1ccc2ccccc2c1)C(=O)O; NMeR = CN[C@@H](CCCNC(=N)N)C(=O)O; Ahp(2) = CCCCC[C@H](N)C(=O)O; NMeNle = CCCC[C@H](NC)C(=O)O; NMeV = CN[C@H](C(=O)O)C(C)C; NMeS = CN[C@@H](CO)C(=O)O; NHexGly = CCCCCCNCC(=O)O; Nle = CCCC[C@H](N)C(=O)O; Orn = NCCC[C@H](N)C(=O)O; ξD = NC(CC(=O)O)C(=O)O

These compounds were tested against T1, mouse VISTA (mVISTA) (Mus musculus, UniProt Q9D659) (assay: Cell-Based Binding High-Content Assay For mVISTA (HC CBA mVISTA)). Details: cell-based binding high-content assay, mVISTA; the 15th table; read-out: HC CBA mVISTA IC50.
T1 construct: expressed in transfected cells; host or cells: Human embryonic kidney 293T cells
T1 sequence (Q9D659 33-308): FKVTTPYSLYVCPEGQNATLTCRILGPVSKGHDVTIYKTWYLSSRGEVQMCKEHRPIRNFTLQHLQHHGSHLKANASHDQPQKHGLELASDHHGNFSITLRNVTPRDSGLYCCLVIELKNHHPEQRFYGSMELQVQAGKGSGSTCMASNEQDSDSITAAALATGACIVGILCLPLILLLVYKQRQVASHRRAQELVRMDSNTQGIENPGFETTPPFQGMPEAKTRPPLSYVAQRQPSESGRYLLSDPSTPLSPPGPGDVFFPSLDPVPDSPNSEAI
Procedure, shortened: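 Competition of compound with a biotinylated peptide (final 2 nM, 30 min at RT) for binding to mVISTA on 293T cells, run under no-wash or wash (1 h compound preincubation then removal) formats. Readout by Alexa 647–streptavidin imaging on a high-content platform; four-parameter logistic fit gave IC50.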

IC50 | SMILES
0.0157 µM | CCCCCCN1CC(=O)N[C@@H](Cc2ccc(O)cc2)C(=O)N[C@@H](CCCCC)C(=O)N[C@@H](CC(N)=O)C(=O)N[C@@H](CCCNC(=N)N)C(=O)N(C)[C@@H](CCCC)C(=O)N[C@@H](CCCCC)C(=O)N2CCC[C@H]2C(=O)N[C@@H](C(C)C)C(=O)N[C@@H](CC(=O)O)C(=O)N[C@H](C(=O)N[C@@H](CO)C(N)=O)CSCC(=O)N[C@@H](Cc2ccc3ccccc3c2)C(=O)N[C@@H](Cc2c[nH]c3ccccc23)C(=O)N[C@@H](CC(=O)O)C1=O [compound 1254] ({CH2CO}-[2Nal]WD[NHexGly]Y[Ahp(2)]NR[NMeNle][Ahp(2)]PVDCS-NH2; thioether N-14)
0.0131 µM | CCCCCCN1CC(=O)N[C@@H](Cc2ccc(O)cc2)C(=O)N[C@@H](CCCC)C(=O)N[C@@H](CC(N)=O)C(=O)N[C@@H](CCCNC(=N)N)C(=O)N(C)[C@@H](CCCC)C(=O)N[C@@H](CCCCC)C(=O)N2CCC[C@H]2C(=O)N[C@@H](C(C)C)C(=O)N[C@@H](CC(=O)O)C(=O)N[C@H](C(=O)N[C@@H](CO)C(=O)O)CSCC(=O)N[C@@H](Cc2ccc3ccccc3c2)C(=O)N[C@@H](Cc2c[nH]c3ccccc23)C(=O)N[C@@H](CC(=O)O)C1=O [compound 1255] ({CH2CO}-[2Nal]WD[NHexGly]Y[Nle]NR[NMeNle][Ahp(2)]PVDCS-OH; thioether N-14)
0.0129 µM | CCCCCCN1CC(=O)N[C@@H](Cc2ccc(O)cc2)C(=O)N[C@@H](CCCC)C(=O)N[C@@H](CC(=O)O)C(=O)N[C@@H](CCCN)C(=O)N(C)[C@@H](CCCC)C(=O)N[C@@H](CCCCC)C(=O)N2CCC[C@H]2C(=O)N[C@@H](C(C)C)C(=O)N[C@@H](CC(=O)O)C(=O)N[C@H](C(=O)N[C@@H](CO)C(N)=O)CSCC(=O)N[C@@H](Cc2ccc3ccccc3c2)C(=O)N[C@@H](Cc2c[nH]c3ccccc23)C(=O)N[C@@H](CC(=O)O)C1=O [compound 1256] ({CH2CO}-[2Nal]WD[NHexGly]Y[Nle]D[Orn][NMeNle][Ahp(2)]PVDCS-NH2; thioether N-14)
0.0113 µM | CCCCCCN1CC(=O)N[C@@H](Cc2ccc(O)cc2)C(=O)N[C@@H](CCCC)C(=O)N[C@@H](CC(=O)O)C(=O)N[C@@H](CCCNC(=N)N)C(=O)N(C)[C@@H](CCCC)C(=O)N[C@@H](CCCCC)C(=O)N2CCC[C@H]2C(=O)N[C@@H](C(C)C)C(=O)N[C@@H](CC(=O)O)C(=O)N[C@H](C(=O)N[C@@H](CO)C(N)=O)CSCC(=O)N[C@@H](Cc2ccc3ccccc3c2)C(=O)N[C@@H](Cc2c[nH]c3ccccc23)C(=O)N[C@@H](CC(=O)O)C1=O [compound 1257] ({CH2CO}-[2Nal]WD[NHexGly]Y[Nle]DR[NMeNle][Ahp(2)]PVDCS-NH2; thioether N-14)
0.012 µM | CCCCCCN1CC(=O)N[C@@H](Cc2ccc(O)cc2)C(=O)N[C@@H](CCCC)C(=O)N[C@@H](CC(N)=O)C(=O)N[C@@H](CCCNC(=N)N)C(=O)N(C)[C@@H](CCCNC(=N)N)C(=O)N[C@@H](CCCCC)C(=O)N2CCC[C@H]2C(=O)N[C@@H](C(C)C)C(=O)N[C@@H](CC(=O)O)C(=O)N[C@H](C(=O)NCC(=O)O)CSCC(=O)N[C@@H](Cc2ccc3ccccc3c2)C(=O)N[C@@H](Cc2c[nH]c3ccccc23)C(=O)N[C@@H](CC(=O)O)C1=O [compound 1258] ({CH2CO}-[2Nal]WD[NHexGly]Y[Nle]NR[NMeR][Ahp(2)]PVDCG-OH; thioether N-14)
0.008 µM | CCCCCCN1CC(=O)N[C@@H](Cc2ccc(O)cc2)C(=O)N[C@@H](CCCC)C(=O)N[C@@H](CC(N)=O)C(=O)N[C@@H](CCCNC(=N)N)C(=O)N(C)[C@@H](CO)C(=O)N[C@@H](CCCCC)C(=O)N2CCC[C@H]2C(=O)N[C@@H](C(C)C)C(=O)N[C@@H](CC(=O)O)C(=O)N[C@H](C(=O)NCC(=O)O)CSCC(=O)N[C@@H](Cc2ccc3ccccc3c2)C(=O)N[C@@H](Cc2c[nH]c3ccccc23)C(=O)N[C@@H](CC(=O)O)C1=O [compound 1259] ({CH2CO}-[2Nal]WD[NHexGly]Y[Nle]NR[NMeS][Ahp(2)]PVDCG-OH; thioether N-14)
0.0094 µM | CCCCCCN1CC(=O)N[C@@H](Cc2ccc(O)cc2)C(=O)N[C@@H](CCCC)C(=O)N[C@@H](CC(N)=O)C(=O)N[C@@H](CCCNC(=N)N)C(=O)N(C)[C@@H](C(C)C)C(=O)N[C@@H](CCCCC)C(=O)N2CCC[C@H]2C(=O)N[C@@H](C(C)C)C(=O)N[C@@H](CC(=O)O)C(=O)N[C@H](C(=O)NCC(=O)O)CSCC(=O)N[C@@H](Cc2ccc3ccccc3c2)C(=O)N[C@@H](Cc2c[nH]c3ccccc23)C(=O)N[C@@H](CC(=O)O)C1=O [compound 1260] ({CH2CO}-[2Nal]WD[NHexGly]Y[Nle]NR[NMeV][Ahp(2)]PVDCG-OH; thioether N-14)
0.0117 µM | CCCCCCN1CC(=O)N[C@@H](Cc2ccc(O)cc2)C(=O)N[C@@H](CCCC)C(=O)N[C@@H](CC(N)=O)C(=O)N[C@@H](CCCNC(=N)N)C(=O)N(C)[C@@H](Cc2c[nH]c3ccccc23)C(=O)N[C@@H](CCCCC)C(=O)N2CCC[C@H]2C(=O)N[C@@H](C(C)C)C(=O)N[C@@H](CC(=O)O)C(=O)N[C@H](C(=O)NCC(=O)O)CSCC(=O)N[C@@H](Cc2ccc3ccccc3c2)C(=O)N[C@@H](Cc2c[nH]c3ccccc23)C(=O)N[C@@H](CC(=O)O)C1=O [compound 1261] ({CH2CO}-[2Nal]WD[NHexGly]Y[Nle]NR[NMeW][Ahp(2)]PVDCG-OH; thioether N-14)
0.02 µM | CCCCCCN1CC(=O)N[C@@H](Cc2ccc(O)cc2)C(=O)N[C@@H](CC(C)C)C(=O)NCC(=O)N[C@@H](CCCNC(=N)N)C(=O)N[C@@H](Cc2ccc(O)cc2)C(=O)N[C@@H](CCCCC)C(=O)N2CCC[C@H]2C(=O)N[C@@H](C(C)C)C(=O)N[C@@H](CC(=O)O)C(=O)N[C@H](C(=O)NCC(=O)O)CSCC(=O)N[C@@H](Cc2ccc3ccccc3c2)C(=O)N[C@@H](Cc2c[nH]c3ccccc23)C(=O)N[C@@H](CC(=O)O)C1=O [compound 1263] ({CH2CO}-[2Nal]WD[NHexGly]YLGRY[Ahp(2)]PVDCG-OH; thioether N-14)
0.0284 µM | CCCCCCN1CC(=O)N[C@@H](Cc2ccc(O)cc2)C(=O)N[C@@H](CC(C)C)C(=O)NCC(=O)N[C@@H](CCCNC(=N)N)C(=O)N[C@@H](Cc2ccc(O)cc2)C(=O)N[C@@H](CCCCC)C(=O)N2CCC[C@H]2C(=O)N[C@@H](C(C)C)C(=O)N[C@@H](CC(=O)O)C(=O)N[C@H](C(=O)NCC(N)=O)CSCC(=O)N[C@@H](Cc2ccc3ccccc3c2)C(=O)N[C@@H](Cc2c[nH]c3ccccc23)C(=O)N[C@@H](CC(=O)O)C1=O [compound 1264] ({CH2CO}-[2Nal]WD[NHexGly]YLGRY[Ahp(2)]PVDCG-NH2; thioether N-14)

Same assay, conditions: read-out: HC CBA mVISTA IC50

IC50 | SMILES
0.0482 µM | CCCCCCN1CC(=O)N[C@@H](Cc2ccc(O)cc2)C(=O)N[C@@H](C(C)C)C(=O)NCC(=O)N[C@@H](CCCNC(=N)N)C(=O)N[C@@H](CC(C)C)C(=O)N[C@@H](CCCCC)C(=O)N2CCC[C@H]2C(=O)N[C@@H](C(C)C)C(=O)N[C@@H](CC(=O)O)C(=O)N[C@H](C(=O)NCC(N)=O)CSCC(=O)N[C@@H](Cc2ccccc2)C(=O)N[C@@H](Cc2ccc3ccccc3c2)C(=O)N[C@@H](CC(=O)O)C1=O [compound 1324] ({CH2CO}-F[2Nal]D[NHexGly]YVGRL[Ahp(2)]PVDCG-NH2; thioether N-14)
0.0243 µM | CCCCCCN1CC(=O)N[C@@H](Cc2ccc(O)cc2)C(=O)N[C@@H](CCCCC)C(=O)NCC(=O)N[C@@H](CCCNC(=N)N)C(=O)N[C@@H](CC(C)C)C(=O)N[C@@H](CCCCC)C(=O)N2CCC[C@H]2C(=O)N[C@@H](C(C)C)C(=O)N[C@@H](CO)C(=O)N[C@H](C(=O)NCC(N)=O)CSCC(=O)N[C@@H](Cc2ccccc2)C(=O)N[C@@H](Cc2ccccc2)C(=O)N[C@@H](CC(=O)O)C1=O [compound 1325] ({CH2CO}-FFD[NHexGly]Y[Ahp(2)]GRL[Ahp(2)]PVSCG-NH2; thioether N-14)
0.0175 µM | CCCCCCN1CC(=O)N[C@@H](Cc2ccc(O)cc2)C(=O)N[C@@H](CCCC)C(=O)N[C@@H](CC(=O)O)C(=O)N[C@@H](CCCN)C(=O)N[C@@H](CC(C)C)C(=O)N[C@@H](CCCCC)C(=O)N2CCC[C@H]2C(=O)N[C@@H](C(C)C)C(=O)N[C@@H](CC(=O)O)C(=O)N[C@H](C(=O)NC(CC(=O)O)C(N)=O)CSCC(=O)N[C@@H](Cc2ccccc2)C(=O)N[C@@H](Cc2cccc(C)c2)C(=O)N[C@@H](CC(=O)O)C1=O (stereo partly drawn) [compound 1326] ({CH2CO}-F[Phe(3-Me)]D[NHexGly]Y[Nle]D[Orn]L[Ahp(2)]PVDC[ξD]-NH2; thioether N-14)
0.0139 µM | CCCCCCN1CC(=O)N[C@@H](Cc2ccc(O)cc2)C(=O)N[C@@H](CCCC)C(=O)N[C@@H](CC(=O)O)C(=O)N[C@@H](CCCNC(=N)N)C(=O)N[C@@H](CC(C)C)C(=O)N[C@@H](CCCCC)C(=O)N2CCC[C@H]2C(=O)N[C@@H](C(C)C)C(=O)N[C@@H](CC(=O)O)C(=O)N[C@H](C(=O)NC(CC(=O)O)C(N)=O)CSCC(=O)N[C@@H](Cc2ccccc2)C(=O)N[C@@H](Cc2cccc(C)c2)C(=O)N[C@@H](CC(=O)O)C1=O (stereo partly drawn) [compound 1327] ({CH2CO}-F[Phe(3-Me)]D[NHexGly]Y[Nle]DRL[Ahp(2)]PVDC[ξD]-NH2; thioether N-14)
0.002 µM | CCCCCCN1CC(=O)N[C@@H](Cc2ccc(O)cc2)C(=O)N[C@@H](CC(C)C)C(=O)N[C@@H](CC(N)=O)C(=O)N[C@@H](CCCNC(=N)N)C(=O)N[C@@H](CC(C)C)C(=O)N[C@@H](CCCCC)C(=O)N2CCC[C@H]2C(=O)N[C@@H](C(C)C)C(=O)N[C@@H](C(C)C)C(=O)N[C@H](C(=O)NCC(=O)O)CSCC(=O)N[C@@H](Cc2ccccc2)C(=O)N[C@@H](Cc2cccc(C)c2)C(=O)N[C@@H](CC(=O)O)C1=O [compound 1328] ({CH2CO}-F[Phe(3-Me)]D[NHexGly]YLNRL[Ahp(2)]PVVCG-OH; thioether N-14)
